Reference: patent US6099857A, “Cell membrane fusion composition and method” (Washington University, priority 1998, dated 2000)

Tests used:
[1] = Breakdown of lipids in vesicles during fusion studies (TLC, straight-phase HPLC, 3H label); assay type: physicochemical; settings: within the time frame of the assay
From the text: To verify the differences in observed fusion rates were not due to selective breakdown of one subclass of ethanolamine glycerophospholipid, aliquots of lipid vesicles employed in the fusion studies were extracted by the method of Bligh and Dyer and analyzed by TLC and straight-phase HPLC. No lysophospholipids or other contaminants were detected within the time frame of the assay. For higher sensitivity detection, 16:0-18:1 plasmenyl ethanolamine was synthesized with a ^3 H label on the sn-2 oleoyl group. This label was added to a liposome preparation containing unlabeled PC and PE.

[2] = NBD-PE/Rh-PE lipid-mixing fusion assay with PS SUVs; settings: equal molar mixture with PC; NBD-PE dequenching
Description: In the NBD-PE/Rh-PE assay detailed in Example 2B, NBD-PE (N-(7-nitrobenz-2-oxa-1,3-diazol-4-yl)-1,2-dihexadecanoyl-sn-glycerol-3-phosphoethanolamine), and Rh-PE are incorporated into PS SUV's and the vesicles are mixed with test vesicles. Vesicle fusion is followed by the change in fluorescence emission at 530 nm, after […] at 464 nm.
This assay was performed by preparing phosphatidylserine SUVs containing 1.8% Rh-PE and 1.2% NBD-PE and adding an equimolar amount of unlabelled PC/PE vesicles pursuant to (Struck, et al. (1981); and Hoekstra, 1982). Fusion was monitored by NBD-PE fluorescence at 530 nm after excitation at 464 nm. The 100% fusion level was assessed by preparing lipid vesicles composed of 46.5% PS, 25% PC, 25% PE, 0.9% Rh-PE, and 0.6% NBD-PE and subsequently quantifying fluorescence intensity.
Since Rh-PE partially quenches NBD-PE fluorescence by resonance energy transfer at the initial concentrations used in these experiments, membrane fusion results in an increase in NBD-PE fluorescence as available membrane surface area increases.
To verify the results obtained with the R18 fusion assay, a second lipid-mixing assay utilizing NBD-PE and Rh-PE was used. […]

[3] = R18 assay of calcium-induced fusion of SUVs of ternary PS/PC/ethanolamine glycerophospholipid mixtures
[4] = molecular target: T1, GAPDH isoform (membrane fusion protein) (Oryctolagus cuniculus, UniProt P46406); assay: Protein-catalyzed membrane fusion of physiologically-modeled SUVs (R18, stopped flow); assay type: biochemical, rabbit; settings: for inhibition of membrane fusion activity: GAPDH isoform-catalyzed fusion of physiologically-modeled SUVs
T1 construct: from tissue; host or cells: rabbit brain (cytosol; DE-52 void volume, HiLoad SP Sepharose, GTP-agarose and Mono Q fractions)
Description: Rabbit brain cytosol was prepared and loaded onto a previously equilibrated DE-52 column. The column was developed with a linear NaCl gradient (0-400 Mm NaCl) and column eluents were assayed for their ability to catalyze membrane fusion utilizing physiologically-modeled small unilamellar vesicles (SUVs) as described in "Materials and Methods". Vesicles were comprised of 16:0-18:1 phosphatidylcholine (27%), 16:0-18:1 phosphatidylserine (6%), cholesterol (40%) and 27% of each of the following ethanolamine glycerophospholipids: 18:0-20:4 plasmenylethanolamine; 16:0-18:1 plasmenylethanolamine; 18:0-20:4 phosphatidylethanolamine; or 16:0-18:1 phosphatidylethanolamine . (----), uv absorbance at 280 nm; (----), NaCl gradient.
Physiologically-modeled SUVs were prepared (concentration=200 μM). The other chamber contained the Pi3 /NAD^+ eluent from GTP-agarose chromatography (0.004 mg/ml) which was previously incubated with (D)-glyceraldehyde 3-phosphate at the indicated concentrations for 30 seconds at 37° C. The rates of membrane fusion from four separate determinations of two preparations were averaged and expressed as a percentage of maximum fusion.
Physiologically-modeled small unilamellar vesicles consisting of 16:0-18:1 phosphatidylcholine (27%), ethanolamine glycerophospholipid (27%), 16:0-18:1 phosphatidylserine (6%) and cholesterol (40%) were prepared (final lipid concentration of 200 μM) and placed in one chamber of a stopped-flow apparatus. Aliquots of the HiLoad SP Sepharose column eluent (protein concentration=0.002 mg/ml) were placed in the other chamber, samples were rapidly mixed in a stopped flow apparatus and membrane fusion was quantified. Ethanolamine glycerophospholipids included 100% plasmenyl ethanolamine (A) 75% plasmenyl ethanolamine and 25% PE (B); 50% plasmenyl ethanolamine and 50% PE (C); and 25% plasmenyl ethanolamine and 75% PE (D;
Vesicles were composed of 16:0-18:1 PC/18:0-20:4 plasmenyl ethanolamine/cholesterol (27/27/40 mole percent) and varying mole percentages of phosphatidylserine (6% phosphatidylserine (A), 12% phosphatidylserine (B), 3% phosphatidylserine (C) or 0% phosphatidylserine (D)).
Physiologically-modeled SUVs containing phosphatidylcholine/18:0-20:4 plasmenylethanolamine/phosphatidylserine (45/45/10 mole ratio) and selected mole percentages of cholesterol (i.e., 40% cholesterol (A), 20% cholesterol (B), or 0% cholesterol (C)) were placed in one chamber of a stopped-flow apparatus. The other chamber contained aliquots of the active fraction from GTP-agarose chromatography (i.e., 20 mM tripolyphosphate/10 mM NAD^+ (Pi3 /NAD^+)), at a protein concentration of 0.004 mg/ml. Samples were rapidly mixed and membrane fusion was quantified. Results represent the average of six recordings from two independent preparations expressed as a percentage of maximal fusion.
The isolation of a GAPDH isoform that has been discovered to catalyze vesicle fusion, in accordance with the invention, is described in Example 5. Briefly, a […] homogenate was centrifuged at high speed to produce a cytosol. Dialyzed cytosol was fractionated on a DE-52 column, and the fractions were assayed in a vesicle fusion assay. The lipid vesicles that were used in the assay were composed of 27 mole percent of […], 6 mole percent PS, 40 mole percent cholesterol, and 27 mole percent […]. These vesicles show little measurable self-fusion activity, as evidenced by change in fluorescence in an R18 assay (half of the vesicles labeled with R18). […] The reasons underlying the cryptic nature of this activity in crude cytosol have been elaborated, showing that the cytosol contains a potent endogenous protein inhibitor of fusion activity. […]

GAPDH = molecular target: T2, GAPDH (Oryctolagus cuniculus, UniProt P46406); assay: Glyceraldehyde 3-phosphate dehydrogenase activity (spectrophotometric, NADH); assay type: biochemical, rabbit
T2 construct: Column eluents were assayed for GAPDH activity and membrane fusion activity; from tissue; host or cells: rabbit brain (column eluents of the purification)
Description: The activity of GAPDH was measured spectrophotometrically utilizing modifications of the methods of Cori, .backslash.at al. (1948) and Steck, et al. (1973). Briefly, sample was added to a 1 cm path-length semi-micro cuvette containing 50 mM triethanolamine (pH 7-6), sodium arsenate (50 mM) (pH 8.8), 2.4 mM glutathione (reduced), 0.5 mM NAD, and water in a final volume of 990 .backslash.pl. After establishing a baseline (1 min), the reaction was initiated with 10 μl of 10 mM D-glyceraldehyde 3-phosphate (prepared according to Sigma product bulletin G-8007) and absorbance at 340 nm was measured for 5 minutes. Units of GAPDH activity represent the mass (μmol) of D-glyceraldehyde 3-phosphate converted per minute. The mass of NADH generated was calculated utilizing ε=[…].

T1 sequence (P46406 2-333 limits assumed): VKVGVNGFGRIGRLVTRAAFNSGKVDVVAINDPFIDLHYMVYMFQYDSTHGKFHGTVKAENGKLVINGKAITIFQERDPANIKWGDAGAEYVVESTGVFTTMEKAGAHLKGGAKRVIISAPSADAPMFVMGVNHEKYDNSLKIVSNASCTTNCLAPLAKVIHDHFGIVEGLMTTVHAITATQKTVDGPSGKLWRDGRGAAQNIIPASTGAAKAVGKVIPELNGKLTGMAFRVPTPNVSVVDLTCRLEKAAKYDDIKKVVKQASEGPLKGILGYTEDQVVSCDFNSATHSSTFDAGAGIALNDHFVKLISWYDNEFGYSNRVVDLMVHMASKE
T2 sequence (P46406 2-333 limits assumed): as above

## CCCCCCCC/C=C\CCCCCCCC(=O)O[C@H](CO/C=C\CCCCCCCCCCCCCC)COP(=O)(O)OCCN [16:0-18:1 plasmenyl ethanolamine]
[1]
  breakdown of lipid during the fusion procedures: No significant generation of radiolabeled fatty acid or lysophospholipid
[2]
  rate of fusion to PS SUVs relative to PC/16:0-18:1 phosphatidylethanolamine vesicles: three times more rapidly
[3]; 45% PC/45% PE/10% PS vesicles
  initial rate of membrane fusion relative to vesicles with 16:0-18:1 phosphatidylethanolamine: significantly greater
[3]; POPS/POPC/ethanolamine glycerophospholipid (1:1:1) SUVs
  fusogenicity relative to vesicles containing 16:0-18:1 phosphatidylethanolamine: six times more fusogenic

## O=C[C@H](O)COP(=O)(O)O [D-glyceraldehyde 3-phosphate]
[4]
  inhibition of membrane fusion activity: inhibited

## O=C(O)c1cc(SSc2ccc([N+](=O)[O-])c(C(=O)O)c2)ccc1[N+](=O)[O-] [DTNB]
[4]; 1 mM for 30 minutes at 37° C., void volume activity
  inactivation of membrane fusion-catalyzing activity: inactivated

## CC(C)[C@H]1CC[C@@]2(CO2)[C@H]2C(=O)OCC(C(=O)O)=C[C@H]12 [Koningic acid]
[4]
  inhibition of membrane fusion activity: failed to inhibit
GAPDH
  inhibition of GAPDH enzyme activity: maximally inhibited

## CCN1C(=O)C=CC1=O [N-ethylmaleimide]
[4]; 1 mM for 60 minutes at 37° C., void volume activity
  inhibition of membrane fusion-catalyzing activity: not inhibited

## GAPDH isoform: 38 kDa isoform of glyceraldehyde-3-phosphate dehydrogenase purified from rabbit brain cytosol that catalyzes vesicle fusion
[4]; calculated, protein 4 μg/ml, assumes ≈1000 lipid molecules per vesicle and tetramer
  time for catalyzed fusion of one pair of vesicles (on average): 1 ms
[4]; each stage of the purification procedure
  selectivity of membrane fusion activity for vesicles containing plasmenylethanolamine compared with phosphatidylethanolamine: highly selective
